Assay results taken from patent publication US9174994B2, “Enhanced treatment regimens using mTor inhibitors” (INTELLIKINE LLC, priority 2011, dated 2015).

Test: Phase I clinical trial: treatment-emergent adverse events (patients, n (%)), dose limiting toxicity, MTD
Format: in vivo
Protocol: Safety, maximum tolerated dose (MTD), pharmacokinetics (PK) and preliminary antitumor activity were evaluated.
Pharmacodynamic (PD) endpoints were evaluated in surrogate (peripheral blood cells [PBCs], skin) and tumor tissues for the phosphorylation of TORC1-dependent markers (4EBP1/S6), and TORC2-dependent markers (AKT/PRAS40).

Compound: CC(C)n1nc(-c2ccc3oc(N)nc3c2)c2c(N)ncnc21 [compound A]
- Dose limiting toxicities (40 mg QW, 20 mg QDx3d QW and 13 mg QDxSd QW cohorts): Grade (G) 3 asthenia and G3 mucositis
- adverse events (AEs) reported: reversibility (3 intermittent dosing regimens): reversible
- lymphopenia, only reported Grade 3 or higher AE possibly related (3 regimens): 6%
- Grade 3 or greater TEAE: Abdominal pain upper (QD Dosing (N = 25)): 1 (4%)
- Grade 3 or greater TEAE: Anaemia (QD Dosing (N = 25)): 1 (4%)
- Grade 3 or greater TEAE: Aspartate aminotransferase increased (QD Dosing (N = 25)): 0 (0%)
- Grade 3 or greater TEAE: Asthenia (QD Dosing (N = 25)): 0 (0%)
- Grade 3 or greater TEAE: Catheter related infection (QD Dosing (N = 25)): 1 (4%)
- Grade 3 or greater TEAE: Cellulitis (QD Dosing (N = 25)): 1 (4%)
- Grade 3 or greater TEAE: Diarrhoea (QD Dosing (N = 25)): 1 (4%)
- Grade 3 or greater TEAE: Disease progression (QD Dosing (N = 25)): 0 (0%)
- Grade 3 or greater TEAE: Enterocutaneous fistula (QD Dosing (N = 25)): 1 (4%)
- Grade 3 or greater TEAE: Gamma-glutamyltransferase increased (QD Dosing (N = 25)): 0 (0%)
- Grade 3 or greater TEAE: Gastroenteritis (QD Dosing (N = 25)): 0 (0%)
- Grade 3 or greater TEAE: Hyperglycaemia (QD Dosing (N = 25)): 4 (16%)
- Grade 3 or greater TEAE: Hypokalaemia (QD Dosing (N = 25)): 2 (8%)
- Grade 3 or greater TEAE: Hyponatraemia (QD Dosing (N = 25)): 2 (8%)
- Grade 3 or greater TEAE: Lymphopenia (QD Dosing (N = 25)): 2 (8%)
- Grade 3 or greater TEAE: Pancreatitis acute (QD Dosing (N = 25)): 1 (4%)
- Grade 3 or greater TEAE: Pleural effusion (QD Dosing (N = 25)): 1 (4%)
- Grade 3 or greater TEAE: Pruritus (QD Dosing (N = 25)): 2 (8%)
- Grade 3 or greater TEAE: Rash (QD Dosing (N = 25)): 7 (28%)
- Grade 3 or greater TEAE: Rash macular (QD Dosing (N = 25)): 0 (0%)
- Grade 3 or greater TEAE: Somnolence (QD Dosing (N = 25)): 1 (4%)
- Grade 3 or greater TEAE: Thrombocytopenia (QD Dosing (N = 25)): 2 (8%)
- Grade 3 or greater TEAE: Urinary tract infection (QD Dosing (N = 25)): 0 (0%)
- Patients Reporting at Least One Grade 3 or Greater TEAE (QD Dosing (N = 25)): 15 (60%)
- Grade 3 or greater TEAE: Abdominal pain upper (QDx3d QW (N = 14)): 0 (0%)
- Grade 3 or greater TEAE: Anaemia (QDx3d QW (N = 14)): 0 (0%)
- Grade 3 or greater TEAE: Aspartate aminotransferase increased (QDx3d QW (N = 14)): 0 (0%)
- Grade 3 or greater TEAE: Asthenia (QDx3d QW (N = 14)): 1 (7%)
- Grade 3 or greater TEAE: Catheter related infection (QDx3d QW (N = 14)): 0 (0%)
- Grade 3 or greater TEAE: Cellulitis (QDx3d QW (N = 14)): 0 (0%)
- Grade 3 or greater TEAE: Diarrhoea (QDx3d QW (N = 14)): 1 (7%)
- Grade 3 or greater TEAE: Disease progression (QDx3d QW (N = 14)): 1 (7%)
- Grade 3 or greater TEAE: Enterocutaneous fistula (QDx3d QW (N = 14)): 0 (0%)
- Grade 3 or greater TEAE: Gamma-glutamyltransferase increased (QDx3d QW (N = 14)): 1 (7%)
- Grade 3 or greater TEAE: Gastroenteritis (QDx3d QW (N = 14)): 1 (7%)
- Grade 3 or greater TEAE: Hyperglycaemia (QDx3d QW (N = 14)): 1 (7%)
- Grade 3 or greater TEAE: Hypokalaemia (QDx3d QW (N = 14)): 0 (0%)
- Grade 3 or greater TEAE: Hyponatraemia (QDx3d QW (N = 14)): 0 (0%)
- Grade 3 or greater TEAE: Lymphopenia (QDx3d QW (N = 14)): 1 (7%)
- Grade 3 or greater TEAE: Pancreatitis acute (QDx3d QW (N = 14)): 0 (0%)
- Grade 3 or greater TEAE: Pleural effusion (QDx3d QW (N = 14)): 0 (0%)
- Grade 3 or greater TEAE: Pruritus (QDx3d QW (N = 14)): 0 (0%)
- Grade 3 or greater TEAE: Rash (QDx3d QW (N = 14)): 0 (0%)
- Grade 3 or greater TEAE: Rash macular (QDx3d QW (N = 14)): 1 (7%)
- Grade 3 or greater TEAE: Somnolence (QDx3d QW (N = 14)): 0 (0%)
- Grade 3 or greater TEAE: Thrombocytopenia (QDx3d QW (N = 14)): 0 (0%)
- Grade 3 or greater TEAE: Urinary tract infection (QDx3d QW (N = 14)): 1 (7%)
- Patients Reporting at Least One Grade 3 or Greater TEAE (QDx3d QW (N = 14)): 7 (50%)
- Grade 3 or greater TEAE: Abdominal pain upper (QDx5d QW (N = 6)): 0 (0%)
- Grade 3 or greater TEAE: Anaemia (QDx5d QW (N = 6)): 0 (0%)
- Grade 3 or greater TEAE: Aspartate aminotransferase increased (QDx5d QW (N = 6)): 0 (0%)
- Grade 3 or greater TEAE: Asthenia (QDx5d QW (N = 6)): 0 (0%)
- Grade 3 or greater TEAE: Catheter related infection (QDx5d QW (N = 6)): 0 (0%)
- Grade 3 or greater TEAE: Cellulitis (QDx5d QW (N = 6)): 0 (0%)
- Grade 3 or greater TEAE: Diarrhoea (QDx5d QW (N = 6)): 0 (0%)
- Grade 3 or greater TEAE: Disease progression (QDx5d QW (N = 6)): 0 (0%)
- Grade 3 or greater TEAE: Enterocutaneous fistula (QDx5d QW (N = 6)): 0 (0%)
- Grade 3 or greater TEAE: Gamma-glutamyltransferase increased (QDx5d QW (N = 6)): 0 (0%)
- Grade 3 or greater TEAE: Gastroenteritis (QDx5d QW (N = 6)): 0 (0%)
- Grade 3 or greater TEAE: Hyperglycaemia (QDx5d QW (N = 6)): 0 (0%)
- Grade 3 or greater TEAE: Hypokalaemia (QDx5d QW (N = 6)): 0 (0%)
- Grade 3 or greater TEAE: Hyponatraemia (QDx5d QW (N = 6)): 0 (0%)
- Grade 3 or greater TEAE: Lymphopenia (QDx5d QW (N = 6)): 0 (0%)
- Grade 3 or greater TEAE: Pancreatitis acute (QDx5d QW (N = 6)): 0 (0%)
- Grade 3 or greater TEAE: Pleural effusion (QDx5d QW (N = 6)): 0 (0%)
- Grade 3 or greater TEAE: Pruritus (QDx5d QW (N = 6)): 0 (0%)
- Grade 3 or greater TEAE: Rash (QDx5d QW (N = 6)): 0 (0%)
- Grade 3 or greater TEAE: Rash macular (QDx5d QW (N = 6)): 0 (0%)
- Grade 3 or greater TEAE: Somnolence (QDx5d QW (N = 6)): 0 (0%)
- Grade 3 or greater TEAE: Thrombocytopenia (QDx5d QW (N = 6)): 0 (0%)
- Grade 3 or greater TEAE: Urinary tract infection (QDx5d QW (N = 6)): 0 (0%)
- Patients Reporting at Least One Grade 3 or Greater TEAE (QDx5d QW (N = 6)): 0 (0%)
- Grade 3 or greater TEAE: Abdominal pain upper (QW Dosing (N = 15)): 0 (0%)
- Grade 3 or greater TEAE: Anaemia (QW Dosing (N = 15)): 0 (0%)
- Grade 3 or greater TEAE: Aspartate aminotransferase increased (QW Dosing (N = 15)): 1 (7%)
- Grade 3 or greater TEAE: Asthenia (QW Dosing (N = 15)): 0 (0%)
- Grade 3 or greater TEAE: Catheter related infection (QW Dosing (N = 15)): 0 (0%)
- Grade 3 or greater TEAE: Cellulitis (QW Dosing (N = 15)): 0 (0%)
- Grade 3 or greater TEAE: Diarrhoea (QW Dosing (N = 15)): 1 (7%)
- Grade 3 or greater TEAE: Disease progression (QW Dosing (N = 15)): 0 (0%)
- Grade 3 or greater TEAE: Enterocutaneous fistula (QW Dosing (N = 15)): 0 (0%)
- Grade 3 or greater TEAE: Gamma-glutamyltransferase increased (QW Dosing (N = 15)): 1 (7%)
- Grade 3 or greater TEAE: Gastroenteritis (QW Dosing (N = 15)): 0 (0%)
- Grade 3 or greater TEAE: Hyperglycaemia (QW Dosing (N = 15)): 0 (0%)
- Grade 3 or greater TEAE: Hypokalaemia (QW Dosing (N = 15)): 0 (0%)
- Grade 3 or greater TEAE: Hyponatraemia (QW Dosing (N = 15)): 0 (0%)
- Grade 3 or greater TEAE: Lymphopenia (QW Dosing (N = 15)): 1 (7%)
- Grade 3 or greater TEAE: Pancreatitis acute (QW Dosing (N = 15)): 0 (0%)
- Grade 3 or greater TEAE: Pleural effusion (QW Dosing (N = 15)): 0 (0%)
- Grade 3 or greater TEAE: Pruritus (QW Dosing (N = 15)): 0 (0%)
- Grade 3 or greater TEAE: Rash (QW Dosing (N = 15)): 0 (0%)
- Grade 3 or greater TEAE: Rash macular (QW Dosing (N = 15)): 0 (0%)
- Grade 3 or greater TEAE: Somnolence (QW Dosing (N = 15)): 0 (0%)
- Grade 3 or greater TEAE: Thrombocytopenia (QW Dosing (N = 15)): 0 (0%)
- Grade 3 or greater TEAE: Urinary tract infection (QW Dosing (N = 15)): 0 (0%)
- Patients Reporting at Least One Grade 3 or Greater TEAE (QW Dosing (N = 15)): 3 (20%)
- Catheter site inflammation (Table 8: Total (N = 60)): 1 (2%)
- Catheter site pain (Table 8: Total (N = 60)): 1 (2%)
- Coagulopathy (Table 8: Total (N = 60)): 1 (2%)
- Confusional state (Table 8: Total (N = 60)): 1 (2%)
- Cough (Table 8: Total (N = 60)): 1 (2%)
- DIARRHEA (Table 8: Total (N = 60)): 1 (2%)
- Dizziness (Table 8: Total (N = 60)): 1 (2%)
- Dyspnoea exertional (Table 8: Total (N = 60)): 1 (2%)
